Results on one molecule are retold here after patent publication US11958816B1, “N′-({[(5-phenyl-1,3,4-oxadiazol-2-yl)sulfanyl]acetyl}oxy)benzenecarboximidamide as an antimicrobial compound” (KING FAISAL UNIVERSITY, priority 2023, dated 2024).

Common to all, as to assay type: cell-based
One assay has as its system Escherichia coli. As to the kind of experiment: Agar plate disc-diffusion, antibacterial activity (inhibition zone). The settings on record: nutrient agar, 37° C., 48 h, DMSO zone subtracted. The method, then:
(§1) The agar plate disc-diffusion method was applied. […] The discs were then placed onto the surface of agar plates (nutrient agar for bacteria and Sabouraud's dextrose agar for fungi) seeded with the test organism. Each plate contained 15 mL of the agar medium, previously seeded with 0.2 mL of the broth culture of each organism pregrown for 18 hours. The plates were incubated at 37° C. for 48 h, and 72 h for fungi. The inhibition zones were measured in mm. Discs impregnated with DMSO were used as a control, and its inhibition zone was subtracted from the tested compound actual inhibition zone.

The next assay deals with Bacillus cereus. Described as above. As to conditions: nutrient agar, 37° C., 48 h, DMSO zone subtracted. The method, then:
as §1

The test system of a further assay is Staphylococcus aureus. The assay is described as above. The settings on record: nutrient agar, 37° C., 48 h, DMSO zone subtracted. The method, then: as §1
The subject of the next assay is Pseudomonas aeruginosa. The description is as above. The settings on record: nutrient agar, 37° C., 48 h, DMSO zone subtracted. As to the method:
as §1

For another assay, the system named is Aspergillus flavus. As to the kind of experiment: Agar plate disc-diffusion, antifungal activity (inhibition zone). As to conditions: Sabouraud's dextrose agar, 37° C., 72 h, DMSO zone subtracted. The method, then: as §1
For orientation: A growth-free zone around the sample is the usual read-out of agar diffusion tests.

Assay [1] relates to Chrysosporium keratinophilum. The description is as above. As to conditions: Sabouraud's dextrose agar, 37° C., 72 h, DMSO zone subtracted. The method, then:
as §1

The mark [2] stands for this setting: A = concentration of comp. = 10,000 μL.
Setting [3] is: B = concentration of comp. = 30,000 μL.
Setting [4] is: C = concentration of comp. = 50,000 μL.

The structures appear in SMILES notation.

`N/C(=N\OC(=O)CSc1nnc(-c2ccccc2)o1)c1ccccc1` [Compound 3, N′-({[(5-phenyl-1,3,4-oxadiazol-2-yl)sulfanyl]acetyl}oxy)benzenecarboximidamide]: the “inhibition zone, Escherichia coli, A” value in the assay on Escherichia coli (setting [2]) is 25 mm. The “inhibition zone, Escherichia coli, B” value in the assay with Escherichia coli (setting [3]) is 37 mm. The “inhibition zone, Escherichia coli, C” value with Escherichia coli (setting [4]) amounted to 45 mm. Further, the “inhibition zone, Bacillus Cereus, A” value with Bacillus cereus (setting [2]) is on record as 23 mm. Besides, the “inhibition zone, Bacillus Cereus, B” value in the assay with Bacillus cereus (setting [3]) is on record as 28 mm. Also, in the assay with Bacillus cereus (setting [4]), the “inhibition zone, Bacillus Cereus, C” value is 40 mm. Also, the “inhibition zone, Staphylococcus aureus, A” value in the assay on Staphylococcus aureus (setting [2]) stood at 24 mm. For the same molecule, in the assay on Staphylococcus aureus (setting [3]), the “inhibition zone, Staphylococcus aureus, B” value turned out to be 28 mm. The “inhibition zone, Staphylococcus aureus, C” value with Staphylococcus aureus (setting [4]) stood at 37 mm. The “inhibition zone, Pseudomonas aeruginosa, A” value in the assay on Pseudomonas aeruginosa (setting [2]) is 17 mm. For the same molecule, the “inhibition zone, Pseudomonas aeruginosa, B” value in the assay on Pseudomonas aeruginosa (setting [3]) is recorded as 24 mm. Besides, the “inhibition zone, Pseudomonas aeruginosa, C” value with Pseudomonas aeruginosa (setting [4]) is listed as 36 mm. Besides, the “inhibition zone, Aspergillus flavus, A” value in the assay with Aspergillus flavus (setting [2]) is on record as 24 mm. The “inhibition zone, Aspergillus flavus, B” value in the assay on Aspergillus flavus (setting [3]) came to 29 mm. Further, the “inhibition zone, Aspergillus flavus, C” value with Aspergillus flavus (setting [4]) is 41 mm. For the same molecule, in assay [1] (setting [2]), the “inhibition zone, Chrysosporium keratinophilum, A” value came to 23 mm. The “inhibition zone, Chrysosporium keratinophilum, B” value in assay [1] (setting [3]) is on record as 26 mm. For the same molecule, the “inhibition zone, Chrysosporium keratinophilum, C” value in assay [1] (setting [4]) is recorded as 40 mm.
